# Conditions: human, in vivo, iv
# Protocol: The kinetics of the glucose infusion was studied to characterize how effectively the volunteers handled the glucose molecules as well as the accompanying water volume. […] 2003, 90, 600-607, in which the plasma concentration of glucose above baseline (C) at any time (t) resulting from the infusion rate ki is calculated by using the following differential equation: (dC)/(dt) = (ki -(CL×C(t)))/(Vd) [formula] in which Vd is the volume of distribution and CL is the glucose clearance.
# The data were normally distributed and thus results were expressed as the mean and standard deviation (SD). Correlations were evaluated by linear regression analysis. P < 0.05 was considered statistically significant.
substance,measurement,value
D-glucose,"Vd, volume of distribution of exogenous glucose",15.52 L
